The structures appear in SMILES notation.

Test [1] has as its target PIM2 (Homo sapiens, UniProt Q9P1W9). The settings on record: 1 μM; Run 1, Run 2.
For test [2], the target named is T1, GRK1 (Homo sapiens, UniProt Q15835).
T1 sequence (Q15835 1-563): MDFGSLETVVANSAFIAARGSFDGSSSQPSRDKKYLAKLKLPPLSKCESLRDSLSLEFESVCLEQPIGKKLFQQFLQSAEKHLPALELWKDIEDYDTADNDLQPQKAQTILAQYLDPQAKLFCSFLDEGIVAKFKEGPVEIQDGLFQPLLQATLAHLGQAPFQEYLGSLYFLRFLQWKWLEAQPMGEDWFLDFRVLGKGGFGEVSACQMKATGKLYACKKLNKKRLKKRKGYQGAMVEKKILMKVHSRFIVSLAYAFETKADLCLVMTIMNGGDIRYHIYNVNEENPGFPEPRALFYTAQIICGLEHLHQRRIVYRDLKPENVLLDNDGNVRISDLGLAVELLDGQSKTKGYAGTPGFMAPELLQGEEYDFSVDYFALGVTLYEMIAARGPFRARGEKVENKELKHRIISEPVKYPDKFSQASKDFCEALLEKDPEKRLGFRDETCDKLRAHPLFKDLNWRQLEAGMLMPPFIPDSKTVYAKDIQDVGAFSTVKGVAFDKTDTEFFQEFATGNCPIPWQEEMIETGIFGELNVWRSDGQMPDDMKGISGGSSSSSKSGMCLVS
The settings on record: 1 μM; Run 1, Run 2.

Test [3] has as its target JNK1 (Homo sapiens, UniProt P45983). The following applies: 1 μM; Run 1, Run 2.
Test [4] concerns the target PEAK1 (Homo sapiens, UniProt Q9H792). Description: biochemical. The following applies: read-out: % enzyme activity, 1 μM; Run 1, Run 2.
Test [5] addresses T2, PKG1b (Homo sapiens, UniProt Q13976).
T2 sequence (Q13976 1-686 isoform Q13976-2): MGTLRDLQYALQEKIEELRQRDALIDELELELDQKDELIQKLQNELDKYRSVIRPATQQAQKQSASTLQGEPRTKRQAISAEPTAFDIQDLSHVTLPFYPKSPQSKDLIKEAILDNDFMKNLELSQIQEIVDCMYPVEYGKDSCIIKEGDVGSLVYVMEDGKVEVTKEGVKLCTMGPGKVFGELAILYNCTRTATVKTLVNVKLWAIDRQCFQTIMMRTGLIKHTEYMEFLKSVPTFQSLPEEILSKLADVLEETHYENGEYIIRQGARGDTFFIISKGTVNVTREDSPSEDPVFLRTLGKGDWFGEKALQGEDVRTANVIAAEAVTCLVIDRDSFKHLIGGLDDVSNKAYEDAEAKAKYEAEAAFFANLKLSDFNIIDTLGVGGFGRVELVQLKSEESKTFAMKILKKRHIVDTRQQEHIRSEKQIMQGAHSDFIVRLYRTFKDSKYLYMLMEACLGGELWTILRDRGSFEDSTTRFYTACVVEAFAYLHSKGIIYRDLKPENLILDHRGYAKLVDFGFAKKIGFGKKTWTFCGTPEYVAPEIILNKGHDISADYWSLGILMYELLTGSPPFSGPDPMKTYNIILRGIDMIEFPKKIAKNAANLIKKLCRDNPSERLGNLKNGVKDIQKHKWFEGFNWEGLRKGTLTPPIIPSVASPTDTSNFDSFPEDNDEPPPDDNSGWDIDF
Description: biochemical. The following applies: read-out: % enzyme activity, 1 μM; Run 1, Run 2.

For test [6], the target named is T3, MYLK3 (Homo sapiens, UniProt Q32MK0).
T3 sequence (Q32MK0 1-819): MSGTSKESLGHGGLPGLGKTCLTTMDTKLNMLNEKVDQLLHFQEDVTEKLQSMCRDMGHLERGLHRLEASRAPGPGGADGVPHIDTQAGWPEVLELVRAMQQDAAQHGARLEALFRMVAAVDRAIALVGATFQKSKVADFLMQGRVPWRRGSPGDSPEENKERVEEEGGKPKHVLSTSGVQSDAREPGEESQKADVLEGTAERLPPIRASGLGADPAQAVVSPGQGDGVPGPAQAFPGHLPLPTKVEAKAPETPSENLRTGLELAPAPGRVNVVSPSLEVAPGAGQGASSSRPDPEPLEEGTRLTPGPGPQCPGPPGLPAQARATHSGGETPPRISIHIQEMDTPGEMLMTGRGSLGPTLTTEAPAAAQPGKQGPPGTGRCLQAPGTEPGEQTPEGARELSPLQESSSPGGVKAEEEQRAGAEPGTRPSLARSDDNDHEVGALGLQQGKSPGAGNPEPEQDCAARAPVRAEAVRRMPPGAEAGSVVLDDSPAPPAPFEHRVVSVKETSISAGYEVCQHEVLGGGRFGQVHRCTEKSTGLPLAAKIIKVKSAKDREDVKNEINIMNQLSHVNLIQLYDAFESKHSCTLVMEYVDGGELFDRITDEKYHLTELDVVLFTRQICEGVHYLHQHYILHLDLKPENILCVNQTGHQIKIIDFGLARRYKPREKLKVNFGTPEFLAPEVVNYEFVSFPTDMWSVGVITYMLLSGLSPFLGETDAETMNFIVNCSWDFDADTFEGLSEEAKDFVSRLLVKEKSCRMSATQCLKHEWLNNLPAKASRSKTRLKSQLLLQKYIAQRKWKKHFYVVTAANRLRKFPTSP
The settings on record: 1 μM; Run 1, Run 2.

Test [7] addresses IGF1R (Homo sapiens, UniProt P08069). The settings on record: 1 μM; Run 1, Run 2.
For test [8], the target named is p70S6Kb/RPS6KB2 (Homo sapiens, UniProt Q9UBS0). The settings on record: 1 μM; Run 1, Run 2.
p70S6Kb/RPS6KB2, sequence (Q9UBS0 whole entry): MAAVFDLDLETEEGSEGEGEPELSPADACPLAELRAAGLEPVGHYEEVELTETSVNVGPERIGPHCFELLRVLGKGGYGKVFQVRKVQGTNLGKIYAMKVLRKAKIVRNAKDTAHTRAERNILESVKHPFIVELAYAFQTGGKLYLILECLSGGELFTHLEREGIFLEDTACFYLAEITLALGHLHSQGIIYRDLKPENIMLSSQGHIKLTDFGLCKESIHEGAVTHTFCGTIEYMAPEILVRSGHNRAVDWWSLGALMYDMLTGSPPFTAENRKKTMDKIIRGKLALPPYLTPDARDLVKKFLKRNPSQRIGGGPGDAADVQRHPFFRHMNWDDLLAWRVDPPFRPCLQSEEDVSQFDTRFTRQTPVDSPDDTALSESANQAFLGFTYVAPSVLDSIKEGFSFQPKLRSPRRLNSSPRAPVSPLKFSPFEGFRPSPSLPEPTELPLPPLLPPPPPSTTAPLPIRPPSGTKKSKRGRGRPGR
Test [9] deals with FGFR3 (Homo sapiens, UniProt P22607). Description: biochemical. The settings on record: read-out: % enzyme activity, 1 μM; Run 1, Run 2.
FGFR3, sequence (P22607 23-806): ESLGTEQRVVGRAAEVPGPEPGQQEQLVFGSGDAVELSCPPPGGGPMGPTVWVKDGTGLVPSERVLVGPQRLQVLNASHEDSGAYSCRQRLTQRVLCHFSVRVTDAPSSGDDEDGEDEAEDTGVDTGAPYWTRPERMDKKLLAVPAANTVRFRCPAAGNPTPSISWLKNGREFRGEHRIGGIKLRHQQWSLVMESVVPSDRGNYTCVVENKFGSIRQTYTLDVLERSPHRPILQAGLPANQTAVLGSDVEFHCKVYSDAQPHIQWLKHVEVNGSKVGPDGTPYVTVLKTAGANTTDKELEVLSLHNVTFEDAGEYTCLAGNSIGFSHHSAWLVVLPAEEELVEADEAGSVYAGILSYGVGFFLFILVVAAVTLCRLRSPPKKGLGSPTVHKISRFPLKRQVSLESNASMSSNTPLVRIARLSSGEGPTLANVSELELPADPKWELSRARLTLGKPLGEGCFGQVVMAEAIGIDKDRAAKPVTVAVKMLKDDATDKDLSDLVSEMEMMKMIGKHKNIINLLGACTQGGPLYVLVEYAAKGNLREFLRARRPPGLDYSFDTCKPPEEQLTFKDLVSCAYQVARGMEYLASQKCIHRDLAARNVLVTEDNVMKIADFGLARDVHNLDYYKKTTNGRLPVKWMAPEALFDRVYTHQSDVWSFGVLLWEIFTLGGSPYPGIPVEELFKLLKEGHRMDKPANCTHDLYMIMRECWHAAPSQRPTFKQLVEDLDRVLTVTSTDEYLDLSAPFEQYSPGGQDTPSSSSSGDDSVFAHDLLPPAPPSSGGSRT

PIM2, sequence (Q9P1W9 whole entry): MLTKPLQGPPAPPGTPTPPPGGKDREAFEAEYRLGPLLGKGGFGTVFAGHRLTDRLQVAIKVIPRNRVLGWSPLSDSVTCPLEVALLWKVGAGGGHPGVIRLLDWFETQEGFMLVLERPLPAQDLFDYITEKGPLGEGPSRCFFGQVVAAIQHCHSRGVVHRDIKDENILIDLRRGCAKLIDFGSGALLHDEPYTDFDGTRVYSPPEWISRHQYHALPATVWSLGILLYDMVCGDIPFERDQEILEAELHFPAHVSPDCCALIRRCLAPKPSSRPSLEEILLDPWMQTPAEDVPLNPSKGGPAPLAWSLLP
IGF1R, sequence (P08069 31-1367): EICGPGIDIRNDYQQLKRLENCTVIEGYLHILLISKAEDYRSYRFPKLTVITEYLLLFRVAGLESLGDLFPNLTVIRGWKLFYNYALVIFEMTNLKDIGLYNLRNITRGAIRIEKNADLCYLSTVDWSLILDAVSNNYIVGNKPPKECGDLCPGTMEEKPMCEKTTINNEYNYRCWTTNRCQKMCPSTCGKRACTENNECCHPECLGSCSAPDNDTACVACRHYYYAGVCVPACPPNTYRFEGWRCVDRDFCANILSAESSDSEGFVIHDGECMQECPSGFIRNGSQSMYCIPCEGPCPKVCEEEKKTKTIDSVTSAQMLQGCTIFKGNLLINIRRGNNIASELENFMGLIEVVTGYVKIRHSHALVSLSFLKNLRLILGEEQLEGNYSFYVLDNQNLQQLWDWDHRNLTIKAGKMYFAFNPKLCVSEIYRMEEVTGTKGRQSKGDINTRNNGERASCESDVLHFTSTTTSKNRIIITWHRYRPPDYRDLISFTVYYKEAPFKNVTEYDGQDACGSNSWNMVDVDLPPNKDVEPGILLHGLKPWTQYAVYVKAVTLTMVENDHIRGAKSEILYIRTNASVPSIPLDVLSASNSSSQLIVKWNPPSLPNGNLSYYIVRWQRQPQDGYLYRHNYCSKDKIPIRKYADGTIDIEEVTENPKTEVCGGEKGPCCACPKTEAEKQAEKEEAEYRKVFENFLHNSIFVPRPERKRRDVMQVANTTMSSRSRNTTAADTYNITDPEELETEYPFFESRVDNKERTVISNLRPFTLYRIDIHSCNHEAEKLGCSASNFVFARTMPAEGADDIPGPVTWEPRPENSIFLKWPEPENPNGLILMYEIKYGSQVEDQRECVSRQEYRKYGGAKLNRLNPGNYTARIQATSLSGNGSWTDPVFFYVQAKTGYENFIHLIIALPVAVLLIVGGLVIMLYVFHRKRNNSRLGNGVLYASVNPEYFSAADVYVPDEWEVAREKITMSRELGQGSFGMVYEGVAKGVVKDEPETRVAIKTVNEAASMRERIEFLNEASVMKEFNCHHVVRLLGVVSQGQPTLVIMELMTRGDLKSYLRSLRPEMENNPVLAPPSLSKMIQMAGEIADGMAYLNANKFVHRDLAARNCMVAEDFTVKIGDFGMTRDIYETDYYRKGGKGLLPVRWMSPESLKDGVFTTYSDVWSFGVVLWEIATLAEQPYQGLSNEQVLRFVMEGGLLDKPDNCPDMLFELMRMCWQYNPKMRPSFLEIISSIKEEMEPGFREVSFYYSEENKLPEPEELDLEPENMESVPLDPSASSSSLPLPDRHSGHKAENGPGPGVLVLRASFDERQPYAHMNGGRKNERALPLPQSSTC
PEAK1, sequence (Q9H792 whole entry): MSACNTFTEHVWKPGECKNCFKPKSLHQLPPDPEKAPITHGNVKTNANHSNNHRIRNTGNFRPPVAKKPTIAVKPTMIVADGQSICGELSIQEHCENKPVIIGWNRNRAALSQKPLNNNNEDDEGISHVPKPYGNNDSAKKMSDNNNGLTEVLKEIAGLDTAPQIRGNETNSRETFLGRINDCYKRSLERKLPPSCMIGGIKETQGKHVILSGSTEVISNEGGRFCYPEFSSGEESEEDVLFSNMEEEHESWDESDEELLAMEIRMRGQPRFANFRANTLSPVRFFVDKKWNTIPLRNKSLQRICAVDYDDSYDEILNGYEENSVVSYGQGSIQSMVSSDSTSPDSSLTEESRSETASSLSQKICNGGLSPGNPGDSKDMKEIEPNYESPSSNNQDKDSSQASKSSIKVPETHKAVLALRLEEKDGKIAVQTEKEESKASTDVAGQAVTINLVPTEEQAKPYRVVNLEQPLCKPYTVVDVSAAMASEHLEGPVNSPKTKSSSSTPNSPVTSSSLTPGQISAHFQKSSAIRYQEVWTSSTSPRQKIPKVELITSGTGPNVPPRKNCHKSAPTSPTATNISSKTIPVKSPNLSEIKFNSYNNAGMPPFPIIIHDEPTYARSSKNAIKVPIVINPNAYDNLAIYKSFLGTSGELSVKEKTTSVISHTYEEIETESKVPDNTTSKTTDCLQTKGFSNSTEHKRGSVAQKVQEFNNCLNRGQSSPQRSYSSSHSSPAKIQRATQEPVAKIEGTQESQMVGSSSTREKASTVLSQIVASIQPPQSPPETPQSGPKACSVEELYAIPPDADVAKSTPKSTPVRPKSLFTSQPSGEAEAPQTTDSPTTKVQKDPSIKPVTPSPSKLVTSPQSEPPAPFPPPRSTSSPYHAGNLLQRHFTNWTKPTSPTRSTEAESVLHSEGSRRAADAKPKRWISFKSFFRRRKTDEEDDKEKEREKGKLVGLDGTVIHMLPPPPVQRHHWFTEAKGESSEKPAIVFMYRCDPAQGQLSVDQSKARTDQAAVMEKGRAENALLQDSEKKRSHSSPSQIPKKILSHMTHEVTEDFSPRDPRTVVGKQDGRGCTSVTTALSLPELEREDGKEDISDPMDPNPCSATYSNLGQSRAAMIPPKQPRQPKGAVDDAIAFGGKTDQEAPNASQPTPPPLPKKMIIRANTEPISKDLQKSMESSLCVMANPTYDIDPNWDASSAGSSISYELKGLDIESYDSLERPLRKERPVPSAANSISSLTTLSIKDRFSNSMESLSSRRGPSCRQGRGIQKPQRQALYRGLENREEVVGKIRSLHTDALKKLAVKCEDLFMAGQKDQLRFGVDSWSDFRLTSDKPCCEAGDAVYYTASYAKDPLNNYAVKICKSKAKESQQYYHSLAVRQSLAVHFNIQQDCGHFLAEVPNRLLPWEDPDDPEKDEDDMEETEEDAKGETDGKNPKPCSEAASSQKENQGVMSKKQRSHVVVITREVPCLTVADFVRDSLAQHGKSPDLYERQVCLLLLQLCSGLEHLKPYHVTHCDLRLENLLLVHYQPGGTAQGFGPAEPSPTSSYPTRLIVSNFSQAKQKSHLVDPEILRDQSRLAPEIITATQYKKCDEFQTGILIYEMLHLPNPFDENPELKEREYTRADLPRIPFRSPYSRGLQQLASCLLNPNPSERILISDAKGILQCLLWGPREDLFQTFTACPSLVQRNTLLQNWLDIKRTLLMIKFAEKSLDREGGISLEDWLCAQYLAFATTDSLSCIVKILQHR
JNK1, sequence (P45983 whole entry): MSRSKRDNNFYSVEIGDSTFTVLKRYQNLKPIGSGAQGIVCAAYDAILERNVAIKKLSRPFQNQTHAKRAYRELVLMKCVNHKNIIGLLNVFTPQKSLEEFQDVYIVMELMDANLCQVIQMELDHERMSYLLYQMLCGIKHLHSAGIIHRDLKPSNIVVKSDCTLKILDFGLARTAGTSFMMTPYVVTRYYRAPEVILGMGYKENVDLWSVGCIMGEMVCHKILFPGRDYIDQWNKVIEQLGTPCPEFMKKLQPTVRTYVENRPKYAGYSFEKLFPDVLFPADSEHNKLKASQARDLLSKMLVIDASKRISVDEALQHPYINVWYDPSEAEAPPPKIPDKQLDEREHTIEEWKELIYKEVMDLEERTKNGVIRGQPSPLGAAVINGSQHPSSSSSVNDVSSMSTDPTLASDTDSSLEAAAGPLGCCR

`COc1cc(-c2cncc(-c3ccc(N4C[C@@H](C)N(C)[C@@H](C)C4)cc3)c2C)cc(F)c1C(N)=O` [Compound 26c, 2-Fluoro-6-methoxy-4-(4-methyl-5-(4-((3R,5S)-3,4,5-trimethylpiperazin-1-yl)phenyl)pyridin-3-yl)benzamide]: the “% enzyme activity” value in [1] is listed as 98.82%; in [2], 94.01%; in test [3], 85.74%; in test [6], 99.34%; in test [7] it was 94.80%; in test [8], 99.09%. The remaining activity at 1 µM in [4] was determined as 96.6%; in test [5], 98.8%; in [9], 103%.

As for `COc1cc(-c2cncc(-c3ccc(N4CCN(C)CC4)cc3)c2C)cc(F)c1C(N)=O` [Compound 26a, 2-Fluoro-6-methoxy-4-(4-methyl-5-(4-(4-methylpiperazin-1-yl)phenyl)pyridin-3-yl)benzamide], the “% enzyme activity” value in test [1] is reported as 95.51%; in [2] it was 93.15%; in test [3] it was 88.65%; in test [6], 98.90%; in test [7], 98.31%; in [8], 97.21%. Moreover, the remaining activity at 1 µM in test [4] amounted to 99.1%; in test [5], 102%; in test [9], 101%.

For the origin of these results see PMC8213057, “Targeting ALK2: An Open Science Approach to Developing Therapeutics for the Treatment of Diffuse Intrinsic Pontine Glioma” (Journal of Medicinal Chemistry, 2020).
